Measurements from patent US20250345492A1, “AN ANTIBACTERIAL POLYPEPTIDE COMPOUND, A MEDICAL DEVICE, HYDROGEL AND USE THEREOF” (priority 2020, published 2025).
Values after ≈ are worked out from the molar mass of the structure shown. Like-named read-outs stand apart in the source and are kept apart here. Ends that are not written are not given here. Peptide text beside a SMILES is read from it.

What was measured:
[1] = system: P-4c, clinical isolated drug-resistant strain PA; details: strain P-4c (PA)
Description: (§1) With respect to the determination of antibacterial activity and antifungal activity of the antibacterial polypeptide compounds, the bacterial strains employed included: E. coli (ATCC 25922), E. coli (ATCC 43837), Pseudomonas aeruginosa (ATCC 27853), Klebsiella pneumoniae (ATCC 700603), Cronobacter sakazakii (ATCC 29544), Staphylococcus aureus (ATCC 29213), Bacillus subtilis (ATCC 23857) and Staphylococcus epidermidis (ATCC 12228); and the fungal strains employed included Candida albicans (ATCC 14053), Candida glabrata (ATCC 2001), Candida parapsilosis (ATCC 22019), Candida tropicalis (ATCC 750) and Candida krusei (ATCC 6258), all of which were standard strains from American Type Culture Collection. In addition, drug-resistant strains S-1a, S-2a, S-3a, S-4a, E-1b, E-2b, E-3b, E-4b, E-5b, P-1c, P-2c, P-3c, P-4c, P-5c, and clinically isolated fungal strains Candida glabrata 2-1 and Candida albicans 14-1, 14-2 and 14-3 were employed, all which were clinically isolated.
(§2) Simply, a proper amount of the cryopreserved bacterium or fungus was added to fresh MH/SD medium, and cultured on a shaker overnight at 180 rpm at 37° C. The obtained cells were seeded again and cultured on a shaker for 4-5 hours to obtain cells in logarithmic phase. The resulting cells were added to a 96-well plate (1×10^5 CFU/ml, 100 μL/well), and then 100 μL of polypeptide with different concentrations (1-256 μM) twice the final concentrations was added to corresponding well according to the 2-fold serial dilution method. The fresh medium was used as a negative control, which was prepared in triplicate for each concentration. After dosing, the 96-well plate was placed in an incubator at constant 37° C. and humidity for 12 hours to observe the results. According to naked eye observations, the concentration of the compound in the first transparent well following the turbid wells was recorded as the MIC of the compound, namely, the MIC value of the compound to the bacterium or fungus.

[2] = system: P-2c, clinical isolated drug-resistant strain PA; details: strain P-2c (PA)
Description: as §1, §2

[3] = system: P-1c, clinical isolated drug-resistant strain PA; details: strain P-1c (PA)
Description: as §1, §2

C. tropicalis ATCC750 = system: C. tropicalis ATCC750
Description: as §1, §2

[4] = system: Bacillus subtilis (ATCC 23857)
Description: as §1, §2

[5] = system: S-1a, clinical isolated drug-resistant strain MRSA; details: strain S-1a (MRSA)
Description: as §1, §2

[6] = system: P-3c, clinical isolated drug-resistant strain PA; details: strain P-3c (PA)
Description: as §1, §2

[7] = system: S-4a, clinical isolated drug-resistant strain MRSA; details: strain S-4a (MRSA)
Description: as §1, §2

[8] = system: S-2a, clinical isolated drug-resistant strain MRSA; details: strain S-2a (MRSA)
Description: as §1, §2

[9] = system: E-2b, clinical isolated drug-resistant strain ESBL; details: strain E-2b (ESBL)
Description: as §1, §2

E. coli (ATCC 25922) = system: E. coli (ATCC 25922)
Description: as §1, §2

[10] = system: P-5c, clinical isolated drug-resistant strain PA; details: strain P-5c (PA)
Description: as §1, §2

[11] = system: E-3b, clinical isolated drug-resistant strain ESBL; details: strain E-3b (ESBL)
Description: as §1, §2

C. albicans ATCC14053 = system: C. albicans ATCC14053
Description: as §1, §2

[12] = system: Pseudomonas aeruginosa (ATCC 27853); details: standard strain
Description: as §1, §2

[13] = system: E-4b, clinical isolated drug-resistant strain ESBL; details: strain E-4b (ESBL)
Description: as §1, §2

[14] = system: Cronobacter sakazakii (ATCC 29544)
Description: as §1, §2

C. parapsilosis ATCC2001 = system: C. parapsilosis ATCC2001
Description: as §1, §2

C. glabrata ATCC22019 = system: C. glabrata ATCC22019
Description: as §1, §2

[15] = system: Staphylococcus aureus (ATCC 29213)
Description: as §1, §2

C. krusei ATCC6258 = system: C. krusei ATCC6258
Description: as §1, §2

[16] = system: E-5b, clinical isolated drug-resistant strain ESBL; details: strain E-5b (ESBL)
Description: as §1, §2

[17] = system: Staphylococcus epidermidis (ATCC 12228)
Description: as §1, §2

[18] = system: S-3a, clinical isolated drug-resistant strain MRSA; details: strain S-3a (MRSA)
Description: as §1, §2

[19] = system: E-1b, clinical isolated drug-resistant strain ESBL; details: strain E-1b (ESBL)
Description: as §1, §2

[20] = system: human embryonic renal epithelial cell HEK293; test: Cytotoxicity, MTT colorimetry; type: cell-based
Experimental: (§3) For cytotoxicity determination, the MTT colorimetry was used to evaluate the effects of the compounds on the proliferation of human cervical cancer cell Hela, human embryonic renal epithelial cell HEK293 and mouse mononuclear macrophage RAW264.7.
(§4) Taking compounds 2, 8, 9, 13 and 15 of the present invention as examples, the cytotoxicity of the antibacterial polypeptide compounds was analyzed. Three cell lines were employed for the present invention, namely human cervical cancer cell Hela, human embryonic renal epithelial cell HEK293 and mouse mononuclear macrophage RAW264.7. Hela cells were cultured in RPMI 1640 medium with 10% newborn calf serum, HEK293 cells and RAW264.7 cells were cultured in DMEM medium with 10% fetal bovine serum. Simply, cells (1×10^4 cells/well) were inoculated to a 96-well plate and incubated in an incubator set to 5% CO2 at 37° C. After 24 hours, compounds of different concentrations were added and incubated in the 5% CO2 incubator. After 24 hours, 20 μL of MTT solution with a concentration of 5 mg/mL was added to each well and incubated for 4 hours. After that, the medium was removed with a pipet, and 150 μL of DMSO added to dissolve the purple-blue formazan crystals. The solution was shaken in an oscillator for 5 mins before detecting the absorbance value at 570 nm using the ELISA reader, and then the survival rate was calculated with the formula: (OD dosing group/OD control group)×100% (n=3).

[21] = system: mouse mononuclear macrophage RAW264.7; test: Cytotoxicity, MTT colorimetry; type: cell-based
Experimental: as §3, §4

[22] = system: human cervical cancer cell Hela; test: Cytotoxicity, MTT colorimetry; type: cell-based
Experimental: as §3, §4

Acute toxicity in mice = test: Acute toxicity in mice; design: species or system Kunming mice; details: mouse, in vivo, ip, intraperitoneal injection, Karber method
Experimental: Acute toxicity of the compounds was determined by measuring the acute toxicity in mice with the compounds.
Taking compounds 2, 8, 9, 13 and 15 of the present invention as examples, […]. The mice used in this test were Kunming mice, which were placed in constant-temperature environment (22±1° C.) and could freely obtain water and food. Simply, 132 healthy Kunming mice were randomly divided into 11 groups, with 12 mice in each group (half male and half female), wherein, 5 groups were intraperitoneally injected with 0.2 ml of the compounds of different doses (100-1000 mg/kg), and the control group was intraperitoneally injected with normal saline. In this experiment, melittin was used as a reference control, and the other 5 groups were intraperitoneally injected with melittin of different doses (10-32 mg/kg). The state of mice was observed and recorded after 2 hours of administration, and then observed twice a day for 14 days, and the survival rates of the mice were recorded.

Compound | MIC [1] [µM] | MIC [2] [µM] | MIC [3] [µM] | MIC [5] [µM] | MIC [6] [µM] | MIC [7] [µM] | MIC [8] [µM] | MIC [9] [µM] | MIC [10] [µM] | MIC [11] [µM] | MIC P. aerugmosa ATCC27853 [12] [µM] | MIC [13] [µM] | MIC [16] [µM] | MIC [18] [µM] | MIC [19] [µM] | LD50 (Acute toxicity in mice) [mg/kg] | MIC C. tropicalis ATCC750 (C. tropicalis ATCC750; ATCC750) [µM] | MIC B. subtilis ATCC23857 ([4]; ATCC 23857) [µM] | MIC C. coli ATCC25922 (E. coli (ATCC 25922); ATCC 25922) [µM] | MIC C. albicans ATCC14053 (C. albicans ATCC14053; ATCC14053) [µM] | other results
CC(C)C[C@H](NC(=O)[C@H](CCCCN)NC(=O)[C@H](CC(C)C)NC(=O)[C@H](CO)NC(=O)[C@H](CC(C)C)NC(=O)[C@H](CCCN)NC(=O)[C@H](Cc1ccccc1)NC(=O)[C@@H]1CCCN1)C(N)=O [Compound 2, Pro-Phe-Orn-Leu-Ser-Leu-Lys-Leu-NH2] (HELM PEPTIDE1{P.F.[Orn].L.S.L.K.L.[am]}$$$$V2.0) | 8 (≈ 7.44 µg/mL) | 8 (≈ 7.44 µg/mL) | 8 (≈ 7.44 µg/mL) | 64 (≈ 59.5 µg/mL) | 8 (≈ 7.44 µg/mL) | 64 (≈ 59.5 µg/mL) | 64 (≈ 59.5 µg/mL) | 16 (≈ 14.9 µg/mL) | 8 (≈ 7.44 µg/mL) | 16 (≈ 14.9 µg/mL) | 8 (≈ 7.44 µg/mL) | 8 (≈ 7.44 µg/mL) | 8 (≈ 7.44 µg/mL) | 64 (≈ 59.5 µg/mL) | 16 (≈ 14.9 µg/mL) | > 1000 | – | – | – | – | MIC C. tropicalis ATCC750 (C. tropicalis ATCC750; fungus): 32 µM (≈ 29.8 µg/mL); MIC B. subtilis ATCC23857 ([4]; standard strain): 16 µM (≈ 14.9 µg/mL); MIC C. coli ATCC25922 (E. coli (ATCC 25922); standard strain): 16 µM (≈ 14.9 µg/mL); MIC C. albicans ATCC14053 (C. albicans ATCC14053; fungus): 32 µM (≈ 29.8 µg/mL); MIC C. sakazakii ATCC29544 ([14]; standard strain): 32 µM (≈ 29.8 µg/mL); MIC C. parapsilosis ATCC2001 (C. parapsilosis ATCC2001; fungus): 16 µM (≈ 14.9 µg/mL); MIC C. glabrata ATCC22019 (C. glabrata ATCC22019; fungus): 32 µM (≈ 29.8 µg/mL); MIC S. aureus ATCC29213 ([15]; standard strain): 64 µM (≈ 59.5 µg/mL); MIC C. krusei ATCC6258 (C. krusei ATCC6258; fungus): 32 µM (≈ 29.8 µg/mL); MIC S. epidermidis ATCC12228 ([17]; standard strain): 16 µM (≈ 14.9 µg/mL); effect on proliferation (inhibitory activity) ([20]; HEK293 cell line, MTT, 24 hours): no inhibitory activity; effect on proliferation (inhibitory activity) ([21]; RAW 264.7 cell line, MTT, 24 hours): no inhibitory activity; effect on proliferation (inhibitory activity) ([22]; Hela cell line, MTT, 24 hours): no inhibitory activity
CC[C@H](C)[C@H](NC(=O)CN)C(=O)NCC(=O)N[C@@H](C)C(=O)N[C@H](C(=O)N[C@@H](CC(C)C)C(=O)N[C@@H](CCCCN)C(=O)N[C@H](C(=O)N[C@@H](CC(C)C)C(=O)N[C@H](C(=O)N[C@H](C(=O)NCC(=O)N[C@@H](CC(C)C)C(=O)N1CCC[C@H]1C(=O)N[C@@H](C)C(=O)N[C@@H](CC(C)C)C(=O)N[C@H](C(=O)N[C@@H](CO)C(=O)N[C@@H](Cc1c[nH]c2ccccc12)C(=O)N[C@H](C(=O)N[C@@H](CCCCN)C(=O)N[C@@H](CCCNC(=N)N)C(=O)N[C@@H](CCCCN)C(=O)N[C@@H](CCCNC(=N)N)C(=O)N[C@@H](CCC(N)=O)C(=O)N[C@@H](CCC(N)=O)C(N)=O)[C@@H](C)CC)[C@@H](C)CC)[C@@H](C)O)[C@@H](C)O)C(C)C)C(C)C [melittin magainin, melittin, reference compound] | – | – | – | – | – | – | – | – | – | – | – | – | – | – | – | – | – | – | – | – | LD50 at 14 days (Acute toxicity in mice; both sexes, Kunming): 20 mg/kg
PWKLSLHL-NH2 [Compound 8] | 8 | 8 | 16 | 64 | 8 | 64 | 64 | 16 | 8 | 16 | 16 | 16 | 16 | 64 | 16 | > 1000 | 16 | 16 | 16 | 16 | MIC C. sakazakii ATCC29544 ([14]; ATCC 29544): 16 µM; MIC C. parapsilosis ATCC2001 (C. parapsilosis ATCC2001; ATCC2001): 16 µM; MIC C. glabrata ATCC22019 (C. glabrata ATCC22019; ATCC22019): 16 µM; MIC S. aureus ATCC29213 ([15]; ATCC 29213): 64 µM; MIC C. krusei ATCC6258 (C. krusei ATCC6258; ATCC6258): 32 µM; MIC S. epidermidis ATCC12228 ([17]; ATCC 12228): 32 µM; effect on proliferation (inhibitory activity) [20]: no inhibitory activity; effect on proliferation (inhibitory activity) [21]: no inhibitory activity; effect on proliferation (inhibitory activity) [22]: no inhibitory activity
PWRLRLHL-NH2 [Compound 13] | 4 | 4 | 8 | 32 | 4 | 32 | 32 | 8 | 4 | 4 | 4 | 8 | 4 | 32 | 8 | > 1000 | 8 | 8 | 8 | 32 | MIC C. sakazakii ATCC29544 ([14]; ATCC 29544): 8 µM; MIC C. parapsilosis ATCC2001 (C. parapsilosis ATCC2001; ATCC2001): 8 µM; MIC C. glabrata ATCC22019 (C. glabrata ATCC22019; ATCC22019): 8 µM; MIC S. aureus ATCC29213 ([15]; ATCC 29213): 32 µM; MIC C. krusei ATCC6258 (C. krusei ATCC6258; ATCC6258): 32 µM; MIC S. epidermidis ATCC12228 ([17]; ATCC 12228): 16 µM; effect on proliferation (inhibitory activity) [20]: no inhibitory activity; effect on proliferation (inhibitory activity) [21]: no inhibitory activity; effect on proliferation (inhibitory activity) [22]: no inhibitory activity
